# Measured values: ChEMBL document CHEMBL1201862, “PubChem BioAssay data set” (2004)
# The source made the active and inactive calls. Rule as the data show it, for most assays here: actives have a measured EC50 and inactives only a lower limit.
# What was measured:
# [1] = molecular target: T1, Heat shock factor protein 1 (Mus musculus, UniProt P38532); test: enhancement of HSF1-driven luciferase signal – cell-based, NIH3T3, luminescence, dose retest, confirmation (AID 435004); type: functional;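 also: stress induced by proteasome inhibitor MG132 added 30 min after compound; luciferase reporter driven by HSF1 response element in NIH3T3 cells; actives raise luminescence as potentiators of the MG132 stress response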
# T1 sequence (P38532 whole entry): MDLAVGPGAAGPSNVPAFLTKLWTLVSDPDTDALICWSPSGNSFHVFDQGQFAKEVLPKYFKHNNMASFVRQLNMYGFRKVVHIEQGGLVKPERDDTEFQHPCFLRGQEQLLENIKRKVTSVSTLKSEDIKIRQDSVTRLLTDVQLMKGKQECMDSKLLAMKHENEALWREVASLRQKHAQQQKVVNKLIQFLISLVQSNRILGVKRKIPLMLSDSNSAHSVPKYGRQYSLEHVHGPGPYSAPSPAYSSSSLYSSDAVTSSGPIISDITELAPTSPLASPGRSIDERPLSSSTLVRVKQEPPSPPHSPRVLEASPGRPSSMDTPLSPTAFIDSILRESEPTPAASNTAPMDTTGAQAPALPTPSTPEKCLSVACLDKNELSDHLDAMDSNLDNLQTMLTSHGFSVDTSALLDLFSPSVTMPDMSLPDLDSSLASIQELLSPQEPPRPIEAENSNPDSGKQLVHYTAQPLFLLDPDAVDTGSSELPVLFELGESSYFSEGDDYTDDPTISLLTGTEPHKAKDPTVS
# Cytochrome P450 2D6 = Cytochrome P450 2D6 (Homo sapiens, UniProt P10635);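 also: CYP2D6 member of a cytochrome P450 panel assay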
# Cytochrome P450 2C9 = Cytochrome P450 2C9 (Homo sapiens, UniProt P11712)
# [2] = molecular target: T1, Heat shock factor protein 1; test: decrease of HSF1-responsive luciferase luminescence – cell-based, NIH3T3, dose retest, confirmation (AID 2382); type: functional;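 also: NIH3T3 fibroblasts with HSF1-driven luciferase reporter stressed by proteasome inhibitor MG132; luminescence from HSF1-driven luciferase expression after 8 hours of MG132 stress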
# [3] = molecular target: T2, Corticotropin-releasing factor receptor 2/Corticotropin-releasing factor-binding protein (Homo sapiens, UniProt P24387+Q13324); test: Dose Response confirmation of uHTS hits for small molecule antagonists of the CRF-binding protein and CRF-R2 receptor complex.; type: functional; settings: read-out: IC50_Mean
# T2 sequence (Q13324 whole entry): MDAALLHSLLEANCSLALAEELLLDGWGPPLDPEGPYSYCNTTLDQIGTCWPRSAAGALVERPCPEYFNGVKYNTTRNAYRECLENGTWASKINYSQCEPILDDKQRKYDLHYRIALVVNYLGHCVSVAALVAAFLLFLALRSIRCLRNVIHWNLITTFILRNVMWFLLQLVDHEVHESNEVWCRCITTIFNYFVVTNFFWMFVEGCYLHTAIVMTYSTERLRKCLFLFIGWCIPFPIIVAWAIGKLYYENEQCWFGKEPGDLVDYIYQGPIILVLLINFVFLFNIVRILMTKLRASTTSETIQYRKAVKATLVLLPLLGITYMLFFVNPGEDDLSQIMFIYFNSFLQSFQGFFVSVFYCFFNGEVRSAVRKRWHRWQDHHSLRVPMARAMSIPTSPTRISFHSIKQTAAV
# T2 sequence (P24387 whole entry): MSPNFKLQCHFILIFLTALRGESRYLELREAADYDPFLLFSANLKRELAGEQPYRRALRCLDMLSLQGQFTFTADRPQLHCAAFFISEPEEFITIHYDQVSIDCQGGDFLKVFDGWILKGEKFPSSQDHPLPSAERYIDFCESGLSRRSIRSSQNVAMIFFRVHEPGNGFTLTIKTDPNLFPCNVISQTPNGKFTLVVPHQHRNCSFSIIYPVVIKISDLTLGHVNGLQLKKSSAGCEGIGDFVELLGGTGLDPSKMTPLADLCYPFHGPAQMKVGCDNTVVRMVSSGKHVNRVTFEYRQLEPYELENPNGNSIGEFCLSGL
# [4] = molecular target: T2, Corticotropin-releasing factor receptor 2/Corticotropin-releasing factor-binding protein; test: activators of CRF receptor 2 with binding protein – uHTS hits, confirmation (AID 602473); type: functional; settings: read-out: EC50_Mean
# [5] = viability of uninfected HEp-2 cells – cell-based, HTS, cytotoxicity control for RSV inhibitor project, dose response (AID 2410); type: functional; settings: human respiratory syncytial virus
# [6] = tested on: Streptococcus sp. 'group A'; test: Streptococcus pyogenes SK(-)GAS viability under kanamycin – luminescence, BacTiterGlo, confirmation, counter-screen for streptokinase expression inhibitor project, dose response (AID 1900); type: functional, organism-based
# Streptococcus = test: GAS UMAA2166 growth inhibition – luminescence, BacTiterGlo, counter-screen for streptokinase expression inhibitor project, dose response (AID 1915); type: functional, organism-based;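 also: potency for reduction of bacterial viability or growth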
# Sequence of Cytochrome P450 2D6 (P10635 whole entry): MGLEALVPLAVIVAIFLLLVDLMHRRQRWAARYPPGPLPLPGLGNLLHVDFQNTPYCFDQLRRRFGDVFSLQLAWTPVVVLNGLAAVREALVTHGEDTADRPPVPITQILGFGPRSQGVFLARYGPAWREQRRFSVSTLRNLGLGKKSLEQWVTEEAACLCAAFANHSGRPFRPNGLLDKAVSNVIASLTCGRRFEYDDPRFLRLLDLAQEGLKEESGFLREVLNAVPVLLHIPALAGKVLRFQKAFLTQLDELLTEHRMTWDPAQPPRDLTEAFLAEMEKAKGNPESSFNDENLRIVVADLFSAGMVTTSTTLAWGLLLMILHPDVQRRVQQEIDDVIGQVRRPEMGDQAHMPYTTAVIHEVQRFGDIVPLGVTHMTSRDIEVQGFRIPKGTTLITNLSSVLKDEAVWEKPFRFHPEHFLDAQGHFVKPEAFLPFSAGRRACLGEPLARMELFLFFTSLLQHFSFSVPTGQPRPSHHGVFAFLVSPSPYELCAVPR
# Sequence of Cytochrome P450 2C9 (P11712 whole entry): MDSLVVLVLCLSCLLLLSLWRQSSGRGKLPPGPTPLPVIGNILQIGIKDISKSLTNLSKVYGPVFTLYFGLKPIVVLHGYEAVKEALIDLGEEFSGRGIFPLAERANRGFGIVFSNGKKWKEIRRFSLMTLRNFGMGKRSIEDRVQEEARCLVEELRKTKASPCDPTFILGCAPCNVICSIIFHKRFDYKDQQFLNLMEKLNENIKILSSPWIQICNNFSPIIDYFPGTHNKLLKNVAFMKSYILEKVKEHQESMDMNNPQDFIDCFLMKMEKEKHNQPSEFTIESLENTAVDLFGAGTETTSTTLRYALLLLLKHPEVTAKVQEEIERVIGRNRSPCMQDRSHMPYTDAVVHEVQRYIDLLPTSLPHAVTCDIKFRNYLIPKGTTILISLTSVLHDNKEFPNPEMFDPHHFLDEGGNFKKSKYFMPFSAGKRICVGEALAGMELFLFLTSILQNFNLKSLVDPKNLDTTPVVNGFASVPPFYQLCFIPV
structure (smiles),measurement,setting,value
Clc1ccc(CSc2nnc(-c3sccc3-n3cccc3)o2)cc1,EC50,[1],> 260 µM (inactive)
same,AC50,Cytochrome P450 2D6,11.2 µM (inconclusive)
same,AC50,Cytochrome P450 2C9,14.1 µM (inconclusive)
CCCCN1CN=C(S)N(c2ccc(C(=O)OCC)cc2)C1,EC50,[2],> 195 µM (not active)
Cc1c(Cl)c([N+](=O)[O-])nn1CC(=O)NC1CCCCC1,IC50,[3],> 47.1 µM (inactive)
same,EC50,[4],> 53 µM (inactive)
Cc1ccc(C(=O)N2CCN(C(=O)CN3CCOCC3)C2)cc1,IC50,[3],> 47.1 µM (inactive)
same,EC50,[4],> 53 µM (inactive)
Cc1ccc(/C=C2/NC(=O)N(Cc3ccc(Br)cc3)C2=O)o1,EC50,[1],> 260 µM (inactive)
COc1ccc(C(=O)Nc2cc(C(F)(F)F)ccc2-n2cnc3ccccc32)cc1,EC50,[1],> 260 µM (inactive)
O=C(Nc1cccc2ccccc12)N1CC=CCC1,IC50,[3],< 0.368 µM (active)
same,EC50,[4],> 53 µM (inactive)
CC(C)CNP(=S)(c1ccccc1)C(C)(C)C (stereo not given),IC50,[3],> 47.1 µM (inactive)
same,EC50,[4],> 53 µM (inactive)
Cc1[nH]c2ccccc2c1SCc1nnc(SCc2ccccc2)n1C,IC50,[3],> 47.1 µM (inactive)
same,EC50,[4],> 53 µM (inactive)
Cc1ccc(S(=O)(=O)CCN2CCN(c3ccccc3)CC2)cc1,EC50,[1],> 260 µM (inactive)
CCOC(=O)c1c(-c2ccc(OC)cc2)csc1NC(=O)CNCc1ccco1,IC50,[3],> 47.1 µM (inactive)
same,EC50,[4],> 53 µM (inactive)
CCn1c(CNC(C)=O)nnc1SCC(=O)c1ccc(Br)cc1,EC50,[1],> 260 µM (inactive)
CCC1=C(OC(=O)N(CC)CC)N2C(=O)O/C(=N\CC3CC3)[C@]2(Cc2ccccc2)[C@H]2C1=CC[C@H]1C(=O)N(c3ccccc3)C(=O)[C@H]12,CC50,[5],36.7 µM (active)
COc1ccc(N2CCN(C(=O)c3ccc(NS(=O)(=O)c4ccccc4)cc3)CC2)cc1,EC50,[2],> 195 µM (not active)
O=C(NCCc1cn[nH]c1)C1CCC(=O)N(CCc2cccc(F)c2)C1 (stereo not given),IC50,[3],> 47.1 µM (inactive)
same,EC50,[4],> 53 µM (inactive)
CCN(C(=O)c1cc2c(O)nc3ccc(C)cc3c2s1)c1ccc(F)cc1,EC50,[2],> 195 µM (not active)
CN(CCC1CCCCO1)C(=O)CCc1nnc(CCCCc2ccccc2)o1 (stereo not given),EC50,[1],242 µM (active)
Cc1ccc(S(=O)(=O)NNC(=O)c2cnn(-c3ccc(Cl)cc3)c2C(F)(F)F)cc1,EC50,[1],> 260 µM (inactive)
Cc1ccc2c(c1)N(C(=O)CCC(=O)N1CCC3(CC1)OCCO3)CCO2,EC50,[2],> 195 µM (not active)
Cc1cccc(NC(S)=Nc2ccc(Cl)c(Cl)c2)c1,EC50,[6],11.5 µM (active)
same,EC50,Streptococcus,> 150 µM (not active)
Cc1cccc(Nc2ncccc2C(=O)O)c1C [NIXYLIC ACID],EC50,[2],> 195 µM (not active)
NC(=O)CSc1nnc([C@@H](N)Cc2c[nH]c3ccccc23)o1,EC50,[2],> 195 µM (not active)
CO[C@H]1C=CO[C@@]2(C)Oc3c(C)c(O)c4c(O)c(c5c(nc6cc(C)ccn65)c4c3C2=O)NC(=O)C(C)=CC=C[C@H](C)[C@H](O)[C@@H](C)[C@@H](O)[C@@H](C)[C@H](OC(C)=O)[C@@H]1C,EC50,[6],< 0.06 µM (active)
same,EC50,Streptococcus,0.071 µM (active)
Fc1cccc(F)c1-c1nc(-c2ccncc2)no1,CC50,[5],38 µM (active)
Cc1ccc(S(=O)(=O)N/N=C\c2cn(-c3ccccc3)nc2-c2ccccc2)cc1,CC50,[5],13.2 µM (active)
O=C1CCN(C(=O)Nc2ccccc2Cl)N1,EC50,[1],> 260 µM (inactive)
COc1ccccc1N1CCN(C2CCCN(C(=O)c3cc(C4CC4)on3)C2)CC1 (stereo not given),IC50,[3],> 47.1 µM (inactive)
same,EC50,[4],> 53 µM (inactive)
CCC(N=C(S)NC1CCCCC1)c1ccccc1 (stereo not given),EC50,[2],> 195 µM (not active)
COc1ccc(NC(=O)CN(C)S(=O)(=O)c2ccc(Br)s2)cc1OC,EC50,[1],> 260 µM (inactive)
O=C(CCSc1ccc(Br)cc1)Nc1cccnc1,IC50,[3],> 47.1 µM (inactive)
same,EC50,[4],> 53 µM (inactive)
Cc1ccc(CN2CC(=O)N3[C@H]4c5cc(Cl)ccc5OC[C@@H]4[C@H](c4ccccc4)[C@]3(C)C2=O)cc1,IC50,[3],> 47.1 µM (inactive)
same,EC50,[4],> 53 µM (inactive)
